Source: paper PMC8157031, “Identification of Binding Regions of Bilirubin in the Ligand-Binding Pocket of the Peroxisome Proliferator-Activated Receptor-A (PPARalpha)” (Molecules, 2021)
Positions count from the first letter of the chain named.

Tests used:
[1] = molecular target: T1, bovine serum albumin (BSA) (Bos taurus, UniProt P02769); experiment: bilirubin autofluorescence titration (excitation […] nm); assay type: binding
T1 construct: gene ALB

PPARα [2] = molecular target: T2, PPARα (Mus musculus, UniProt P23204, A333G); experiment: bilirubin autofluorescence with purified mutant; binding reduced by […]
T2 construct: gene Ppara; full-length histidine-tagged mouse PPARα
T2 sequence (P23204 1-468 A333G): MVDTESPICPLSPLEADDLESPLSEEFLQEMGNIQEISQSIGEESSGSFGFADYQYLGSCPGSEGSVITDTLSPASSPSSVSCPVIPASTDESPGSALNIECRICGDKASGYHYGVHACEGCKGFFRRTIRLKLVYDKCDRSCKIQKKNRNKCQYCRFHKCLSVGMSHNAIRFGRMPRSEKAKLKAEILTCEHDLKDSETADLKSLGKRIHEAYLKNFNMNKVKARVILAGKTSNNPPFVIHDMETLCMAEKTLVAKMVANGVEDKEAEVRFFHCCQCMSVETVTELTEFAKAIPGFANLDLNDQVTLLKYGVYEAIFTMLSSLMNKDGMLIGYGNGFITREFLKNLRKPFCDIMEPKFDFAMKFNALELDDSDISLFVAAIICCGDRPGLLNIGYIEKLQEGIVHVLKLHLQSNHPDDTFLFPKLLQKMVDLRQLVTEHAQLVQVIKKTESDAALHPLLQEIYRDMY

PPARα [3] = molecular target: T3, PPARα (Mus musculus, UniProt P23204); experiment: bilirubin autofluorescence titration with purified His-PPARα; assay type: binding
T3 construct: gene Ppara; full-length histidine-tagged mouse PPARα
T3 sequence (P23204 1-468): T2 sequence (P23204 1-468 A333G) with G333A

PPARα [4] = molecular target: T4, PPARα (Mus musculus, UniProt P23204, T283G); experiment: bilirubin autofluorescence with purified mutant; binding reduced by […]
T4 construct: gene Ppara; full-length histidine-tagged mouse PPARα
T4 sequence (P23204 1-468 T283G): T2 sequence (P23204 1-468 A333G) with T283G, G333A

[5] = molecular target: T1, bovine serum albumin (BSA); experiment: biliverdin autofluorescence dose-response (excitation […] nm); assay type: binding

T1 sequence (P02769 25-607): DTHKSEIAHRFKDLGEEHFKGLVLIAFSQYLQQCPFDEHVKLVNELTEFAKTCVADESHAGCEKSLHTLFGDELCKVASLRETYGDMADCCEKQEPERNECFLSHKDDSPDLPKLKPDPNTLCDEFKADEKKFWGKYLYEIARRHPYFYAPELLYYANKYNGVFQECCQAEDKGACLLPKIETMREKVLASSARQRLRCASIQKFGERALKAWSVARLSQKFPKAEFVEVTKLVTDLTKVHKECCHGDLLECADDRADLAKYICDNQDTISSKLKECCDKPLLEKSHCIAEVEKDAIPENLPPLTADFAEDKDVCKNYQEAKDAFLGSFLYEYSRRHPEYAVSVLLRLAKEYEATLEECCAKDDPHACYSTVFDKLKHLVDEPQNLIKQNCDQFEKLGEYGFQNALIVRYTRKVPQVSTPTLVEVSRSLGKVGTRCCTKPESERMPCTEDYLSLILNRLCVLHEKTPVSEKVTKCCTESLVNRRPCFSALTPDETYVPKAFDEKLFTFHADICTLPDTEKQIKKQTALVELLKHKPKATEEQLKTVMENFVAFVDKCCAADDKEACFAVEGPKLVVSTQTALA

SMILES	Kd [1] [µM]	% reduction of binding (PPARα [2])	Kd (PPARα [3]) [µM]	% reduction of binding (PPARα [4])	biliverdin autofluorescence dose-response (excitation 440 nm) [5]
C=CC1=C(C)/C(=C/c2[nH]c(Cc3[nH]c(/C=C4\NC(=O)C(C)=C4C=C)c(C)c3CCC(=O)O)c(CCC(=O)O)c2C)NC1=O [BR, bilirubin]	11.1	17.0 % reduction of binding	5.13	11.4 % reduction of binding	
C=CC1=C(C)/C(=C/C2=NC(=C\c3[nH]c(/C=C4\NC(=O)C(C)=C4C=C)c(C)c3CCC(=O)O)/C(CCC(=O)O)=C2C)NC1=O [BV, biliverdin]					The results in Figure 1C show a dose-dependent increase in fluorescence for biliverdin bound to albumin
